Assay results reported in patent US6503935B1, “Imidazoles and related compounds as α1A agonists” (Abbott Laboratories, priority 1998, dated 2003).
Counter-ions that a name gives are not always drawn. Like-named read-outs stand apart in the source and are kept apart here.

Assays:
[1] = biological target: T1, α1d (rat receptor expressed in mouse fibroblasts) (Rattus norvegicus, UniProt P23944); assay: Radioligand binding with [3H]-prazosin, α1d; conditions: read-out: Radioligand Binding Ki α1d (Rat)
T1 construct: expressed in transfected cells; host or cells: mouse fibroblasts
T1 sequence (P23944 1-561): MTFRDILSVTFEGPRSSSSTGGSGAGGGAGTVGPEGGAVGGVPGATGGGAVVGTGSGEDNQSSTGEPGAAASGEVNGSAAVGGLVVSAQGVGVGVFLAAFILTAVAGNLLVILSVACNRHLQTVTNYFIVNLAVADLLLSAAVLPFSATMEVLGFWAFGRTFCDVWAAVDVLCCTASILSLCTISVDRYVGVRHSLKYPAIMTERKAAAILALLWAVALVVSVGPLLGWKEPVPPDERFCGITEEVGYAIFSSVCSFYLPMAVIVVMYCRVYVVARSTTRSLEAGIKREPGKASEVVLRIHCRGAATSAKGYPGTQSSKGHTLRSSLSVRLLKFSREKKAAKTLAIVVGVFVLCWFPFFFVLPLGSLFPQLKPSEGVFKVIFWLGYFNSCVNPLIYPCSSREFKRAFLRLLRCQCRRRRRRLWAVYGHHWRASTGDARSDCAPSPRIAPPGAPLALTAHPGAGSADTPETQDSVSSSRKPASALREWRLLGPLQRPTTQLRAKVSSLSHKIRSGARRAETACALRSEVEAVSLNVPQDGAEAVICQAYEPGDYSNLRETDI
In short: (§1)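 Radioligand binding with [3H]-prazosin: α1A from rat submaxillary gland; α1b hamster receptor and α1d rat receptor, each expressed in mouse fibroblasts.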

[2] = biological target: T2, α1B (rat spleen) (Rattus norvegicus, UniProt P15823); assay: Agonist contraction of smooth muscle tissue, rat spleen; type: cell-based; conditions: read-out: Agonist Tissue Response (pD2) α1B (rat spleen) (converted)
T2 construct: α1B (rat spleen) and α1D (rat aorta) receptors; from tissue; host or cells: rat spleen
T2 sequence (P15823 1-515): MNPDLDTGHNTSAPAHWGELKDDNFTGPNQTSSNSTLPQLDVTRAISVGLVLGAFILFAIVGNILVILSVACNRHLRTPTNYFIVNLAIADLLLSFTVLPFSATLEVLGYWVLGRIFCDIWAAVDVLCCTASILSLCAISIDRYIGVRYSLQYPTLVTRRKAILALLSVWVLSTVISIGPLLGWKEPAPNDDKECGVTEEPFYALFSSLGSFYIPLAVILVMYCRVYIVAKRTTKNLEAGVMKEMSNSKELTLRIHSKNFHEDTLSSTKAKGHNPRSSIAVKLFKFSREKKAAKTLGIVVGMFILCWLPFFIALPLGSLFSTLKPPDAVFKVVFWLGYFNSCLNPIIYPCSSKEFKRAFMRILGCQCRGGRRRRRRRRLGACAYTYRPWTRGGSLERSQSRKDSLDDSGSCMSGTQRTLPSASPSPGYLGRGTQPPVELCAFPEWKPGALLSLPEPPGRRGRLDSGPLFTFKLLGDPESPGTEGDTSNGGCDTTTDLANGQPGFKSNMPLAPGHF

[3] = biological target: T3, α1A (rat epididymal vas deferens) (Rattus norvegicus, UniProt P43140); assay: cell-based; conditions: rat epididymal vas deferens (values marked *); read-out: Agonist Tissue Response (pD2) α1A, test performed using rat epididymal vas deferens (converted)
T3 sequence (P43140 1-466): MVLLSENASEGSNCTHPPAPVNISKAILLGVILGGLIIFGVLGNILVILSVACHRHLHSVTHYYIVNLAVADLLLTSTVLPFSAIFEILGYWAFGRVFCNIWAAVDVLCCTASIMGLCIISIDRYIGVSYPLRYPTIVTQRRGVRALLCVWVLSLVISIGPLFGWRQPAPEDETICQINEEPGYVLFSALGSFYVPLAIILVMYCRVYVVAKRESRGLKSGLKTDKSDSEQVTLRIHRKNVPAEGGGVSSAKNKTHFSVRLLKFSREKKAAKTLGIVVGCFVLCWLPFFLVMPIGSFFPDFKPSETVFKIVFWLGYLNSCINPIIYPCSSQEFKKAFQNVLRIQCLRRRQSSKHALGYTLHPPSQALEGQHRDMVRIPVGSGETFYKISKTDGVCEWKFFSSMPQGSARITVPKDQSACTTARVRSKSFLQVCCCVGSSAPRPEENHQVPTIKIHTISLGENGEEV

[4] = biological target: T4, α1A (rat submaxillary gland) (Rattus norvegicus, UniProt P43140); assay: Radioligand binding with [3H]-prazosin, α1A
T4 construct: α1A (rat submaxillary gland); from tissue; host or cells: rat submaxillary gland
T4 sequence (P43140 1-466): T3 sequence (P43140 1-466)
In short: as §1

[5] = biological target: T5, α1b (hamster receptor expressed in mouse fibroblasts) (Mesocricetus auratus, UniProt P18841); assay: Radioligand binding with [3H]-prazosin, α1b; conditions: read-out: Radioligand Binding Ki α1b (Hamster)
T5 construct: expressed in transfected cells; host or cells: mouse fibroblasts
T5 sequence (P18841 1-515): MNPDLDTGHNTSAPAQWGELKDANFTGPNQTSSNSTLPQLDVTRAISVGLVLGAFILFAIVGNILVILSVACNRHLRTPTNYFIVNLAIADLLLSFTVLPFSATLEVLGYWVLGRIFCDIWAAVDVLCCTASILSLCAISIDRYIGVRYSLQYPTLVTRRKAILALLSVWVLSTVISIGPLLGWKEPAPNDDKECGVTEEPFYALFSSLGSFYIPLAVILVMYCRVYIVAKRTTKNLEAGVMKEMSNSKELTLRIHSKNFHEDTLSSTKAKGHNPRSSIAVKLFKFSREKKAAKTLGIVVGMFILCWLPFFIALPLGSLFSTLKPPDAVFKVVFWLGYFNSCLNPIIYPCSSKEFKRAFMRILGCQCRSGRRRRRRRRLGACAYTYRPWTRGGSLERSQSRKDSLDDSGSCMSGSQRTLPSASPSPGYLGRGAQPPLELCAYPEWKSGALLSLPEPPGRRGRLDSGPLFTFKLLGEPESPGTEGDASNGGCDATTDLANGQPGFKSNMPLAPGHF
Experimental: For purposes of discussing α1 adrenoceptor subtypes, the IUPHAR convention of using lower case letters to define molecular clones and upper case letters to indicate pharmacologically defined adrenoceptors has been followed. Compounds of formula I were evaluated in radioligand binding assays specific for α1A (rat submaxillary gland), α1b (hamster receptor expressed in mouse fibroblasts) and α1d (rat receptor expressed in mouse fibroblasts) using [^3H]-prazosin as the radioligand as described in Knepper, et al. J. Pharm.

[6] = biological target: T6, α1D (rat aorta) (Rattus norvegicus, UniProt P23944); assay: Agonist contraction of smooth muscle tissue, rat aorta; type: cell-based; conditions: read-out: Agonist Tissue Response (pD2) α1D (rat aorta) (converted)
T6 construct: α1B (rat spleen) and α1D (rat aorta) receptors; from tissue; host or cells: rat aorta strips, endothelium removed
T6 sequence (P23944 1-561): T1 sequence (P23944 1-561)

[7] = biological target: T7, α1A (rabbit urethra) (Oryctolagus cuniculus, UniProt O02824); assay: Agonist contraction of smooth muscle tissue, rabbit urethra; type: cell-based; conditions: rabbit urethra; read-out: Agonist Tissue Response (pD2) α1A (rab ureth) (converted)
T7 construct: tested for α1A functional activity using rabbit urethra; from tissue; host or cells: rabbit urethra
T7 sequence (O02824 1-466): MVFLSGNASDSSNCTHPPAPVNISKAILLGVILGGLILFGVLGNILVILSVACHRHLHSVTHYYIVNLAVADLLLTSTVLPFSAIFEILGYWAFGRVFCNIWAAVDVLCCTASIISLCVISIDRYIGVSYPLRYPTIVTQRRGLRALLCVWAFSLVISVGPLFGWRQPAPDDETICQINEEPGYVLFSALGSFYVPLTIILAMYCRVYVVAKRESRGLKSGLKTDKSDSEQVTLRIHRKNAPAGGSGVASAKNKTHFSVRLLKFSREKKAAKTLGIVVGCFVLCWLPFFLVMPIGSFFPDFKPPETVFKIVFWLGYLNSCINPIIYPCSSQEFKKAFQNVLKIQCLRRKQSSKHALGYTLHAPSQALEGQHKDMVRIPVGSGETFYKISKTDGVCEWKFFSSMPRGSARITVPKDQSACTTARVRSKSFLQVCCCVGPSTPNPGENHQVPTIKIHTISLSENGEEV
Experimental: Most of the compounds were tested for α1A functional activity using rabbit urethra as follows. Female New Zealand white rabbits (2.0-3.5 Kg) were sedated with CO2 and decapitated. […] Subsequent experimental conditions were as described above for the other tissues. Agonist concentration response curves were cumulative except for the vas deferens assay in which the transient response made such measurements impractical.

[8] = tested on: Anesthetized Dogs; assay: Intraurethral pressure (IUP) in anesthetized dogs; type: in vivo, dog; conditions: anesthetized female dogs, iv
From the text: (§2) In vivo Functional Assays-Assessment of Intrurethral Pressure (IUP) and Mean Arterial Pressure (MAP) in Anesthetized Dogs
(§3) Female dogs (Marshall Farms, North Rose, N.Y.) greater that 2 years of age and weighing between 12 and 15 kg were used in these studies. At least 2 weeks prior to any agonist dosing, dogs were instrumented for the chronic measurement of arterial blood pressure by implanting a telemetry transducer/transmitter (TA11PA-C40, Data Sciences International, St. Paul, Minn.) into a carotid artery.
(§4) On the test day, dogs fasted since the previous afternoon were pre-anesthetized with thiopental sodium 15 mg/kg i.v. (Pentothal™, Abbott) and intubated. Anesthesia was maintained by allowing the dog to spontaneously breathe a mixture of isoflurane (2.5 to 3 volume %) and oxygen delivered by a Narkomed Standard anesthesia system (North American Drager, Telford, Pa.). An Abbocath-T™ i.v. catheter (18-G, Abbott) was inserted into the cephalic vein for the administration of agonists. A telemetry receiver (RA1310, DataSciences) was placed under the head of each dog and was interfaced to a computerized data acquisition system (Modular Instruments Inc.(MI2), Malvern, Pa.) which allowed for the continuous calibrated recording of arterial blood pressure which was electronically filtered to determine its mean value (MAP).
(§5) Dogs with chronic telemetry implants anesthetized as described above were placed in dorsal recumbency and a balloon catheter was inserted into the urethral orifice and advanced approximately 15 cm until the tip was well inside the bladder. The balloon was then inflated with 1 ml of room air and the catheter slowly withdrawn until resistance (corresponding to the bladder neck) was evident. The balloon was then deflated and the catheter withdrawn an additional 2 cm. The balloon was then reinflated and its catheter port connected to a Gould Statham P23Dd pressure transducer interfaced to a computerized data acquisition system (Modular Instruments, Inc., Malvern, Pa.) for the measurement of intraurethral pressure. Increasing iv doses of test agonists were administered and the maximum effect of each dose on IUP was recorded. The effect of each dose was allowed to return to baseline before the next dose was given.
(§6) From the resulting dose response curve, an ED5 value, for the dose causing a maximum increase in IUP of 5 mm Hg, could be estimated. An ED20 value for the dose causing a maximum increase in MAP of 20 mm Hg could also be estimated. A selectivity ratio of MAP ED20 vs. IUP ED5 was calculated.

[9] = tested on: Anesthetized Dogs; assay: Mean arterial pressure (MAP) in anesthetized dogs; type: in vivo, dog; conditions: iv dose causing a maximum increase in MAP of 20 mm Hg, anesthetized female dogs
From the text: as §2, §3, §4, §5, §6

[10] = tested on: Anesthetized Dogs; assay: Intraurethral pressure (IUP) in anesthetized dogs; type: in vivo, dog; conditions: Canis lupus familiaris; iv dose causing a maximum increase in IUP of 5 mm Hg, anesthetized female dogs; read-out: Mean IUP ED5

| Structure (SMILES) | melting point | Ki [1] | Ki [4] | other results |
| --- | --- | --- | --- | --- |
| O=C(Nc1cccc2c1CCCC2c1c[nH]cn1)C(F)(F)F (stereo not drawn) (as salt: maleate) [Example 17, 2,2,2-trifluoro-N-[5-(1H-imidazol-4-yl)-5,6,7,8-tetahydro-1-naphthalenyl]acetamide, maleate] | 181 to 182 °C |  |  |  |
| CCCn1cnc(C2CCCc3c2ccc(O)c3NS(C)(=O)=O)c1 (stereo not drawn) [Example 7, N-[2-hydroxy-5-(1-propyl-1H-imidazol-4-yl)-5,6,7,8-tetrahydro-1-naphthalenyl]methanesulfonamide, hydrochloride] |  | 3.78 µM | 661 nM | EC50 [2]: > 1 mM; EC50 [3]: > 1000 µM |
| C=C(c1cccc(NS(=O)(=O)CC)c1)c1c[nH]cn1 (as salt: maleate) [Example 45, N-{3-[1-(1H-imidazol-4-yl)vinyl]phenyly}ethanesulfonamide, maleate] | 151 to 155 °C |  |  |  |
| CN(c1cccc2c1CCCC2c1c[nH]cn1)S(C)(=O)=O (stereo not drawn) (as salt: maleate) [Example 15, N-[5,6,7,8-tetrahydro-5-(1H-imidazol-4-yl)-1-naphthalenyl]-N-methylmethanesulfonmamide, maleate] | 146 to 147 °C |  |  |  |
| CS(=O)(=O)Nc1c(O)ccc2c1CCCC2c1c[nH]cn1 (stereo not drawn) [Example 2, N-[2-hydroxy-5-(1H-imidazol-4-yl)-5,6,7,8-tetrahydro-1-naphthalenyl]methanesulfonamide, hydrochloride] |  | 1.26 µM | 36.1 nM | Ki [5]: 2520 nM; EC50 [6]: 1910 nM; EC50 [3]: 0.017 µM |
| COc1ccc(NS(C)(=O)=O)c2c1C(c1c[nH]cn1)CCC2 (stereo not drawn) (as salt: maleate) [Example 26, N-[5,6,7,8-tetrahydro-(1H-imidazol-4-yl)-4-methoxyy-1-naphthalenyl]methanesulfonamide, maleate] | 181 to 184 °C |  |  |  |
| O=S(=O)(CC(F)(F)F)Nc1cccc2c1CCCC2c1c[nH]cn1 (single isomer, unassigned; (+)) [Example 36, (+)-N-[5,6,7,8-tetrahydro-5-(1H-imidazol-4-yl)-1-naphthalenyl]-2,2,2-trifluoroethanesulfonamide] |  |  |  | EC50 [7]: 1860 nM; Mean Selectivity Ratio MAP ED20/IUP ED5 [8]: 3.6; Mean MAP ED20 [9]: 508 nmol/kg; ED (5 mmHg IUP increase) [10]: 0.156 µmol/kg; Ki ([4]; rat submaxillary gland, [3H]-prazosin): 124 nM |
| CCn1cnc(C2CCCc3c2ccc(O)c3NS(C)(=O)=O)c1.Cl (stereo not drawn) [Example 6, N-[5-(1-ethyl-1H-imidazol-4-yl)-2-hydroxy-5,6,7,8-tetrahydro-1-naphthalenyl]methanesulfonamide, hydrochloride] | 230 to 234 °C (dec.) | 16.7 µM | 2080 nM |  |
